Source: US20060264455A1 (priority 2005, published 2006)
“And” between values parts separate entries of the source, which are not always exact repeats. Equal entries are not always repeated. Where two headings read alike, the source gives them in different places.

Columns and labels:
[1] = test system: subcutaneous Metrazol (pentylenetetrazol) seizures; experiment: Subcutaneous Metrazol (SCMET / scPTZ) model, rats
Description: The Subcutaneous Metrazole (SCMET) model is also an art-recognized test for therapeutic agents for epilepsy, and in particular, is useful for investigating petite mal seizures.

[2] = test system: subcutaneous Metrazol (pentylenetetrazol) seizures; details: i.p.
Protocol: Male, 18-25 g CFI mice and 100-125 g Sprague-Dawley rats (Charles River Laboratories, Wilmington, Mass.) were used as the experimental animals. Animals were pretreated intraperitoneally (i.p.) with increasing doses of HupA and tested at various times after administration for protection against tonic extension (MES test), minimal clonic (s.c. PTZ test), limbic (6 Hz), or secondarily generalized (kindled rat) seizures. Seizure testing was carried out as follows. For the MES and 6 Hz tests, a drop of anesthetic/electrolyte solution (0.5% tetracaine hydrochloride in 0.9% saline) was applied to the eyes of each animal prior to placement of the corneal electrodes. […] The ability of the test substance to prevent seizures induced by 6 Hz corneal stimulation (32 mA, 3 sec duration) was assessed at various times after i.p. administration of 1 mg/kg HupA For assessment of hippocampal kindling, HupA (1 mg/kg, i.p.) was administered.

[3] = test system: formalin-induced paw-licking; experiment: Formalin test (paw licking/biting) in mice; assay type: in vivo; details: for Duration of Licking: Trial 1, one value per animal #01-08; for activity at 0.5 mg/kg / activity at 1 mg/kg: Mus musculus, ip, read-out: Area Under the Curve, % of Control
Protocol: The formalin test for antinociceptive activity is described in numerous publications, e.g., Hunskaar, S., O. B. Fasmer, and K. Hole, J. Neurosci. […] The formalin test is accepted as an art recognized model of persistent clinical pain.
Male Swiss Webster NIH mice (20-30 g; Harlan, San Diego, Calif.) were used in the experiments described herein. Food was withdrawn on the day of experiment. Mice were placed in Plexiglass jars for at least 1 hour to accommodate to the environment. Following the accommodation period, mice were weighed and given either a huperzine compound administered intraperitoneal (i.p.) or oral (p.o.), or the appropriate volume of vehicle (10% Tween-80). Fifteen minutes after the i.p. dosing, and 30 minutes after the p.o. dosing mice were injected with formalin (20 μL of 5% formaldehyde solution in saline) into the dorsal surface of the right hind paw. Mice were transferred to the Plexiglass jars and monitored for the amount of time spent licking or biting the injected paw. Periods of licking and biting were recorded in 5 minute intervals for 40 minutes after the formalin injection. All experiments were done in a blinded manner. The early phase (acute) of the formalin response is measured as licking/biting between 0-5 minutes, and the late phase (inflammatory) is measured from 10-40 minutes. Differences between vehicle and drug treated groups are analyzed by one-way analysis of variance (ANOVA). A P value<0.05 is considered significant.
Fifteen minutes after the i.p. dosing, mice were injected with formalin (20 μL of 5% formaldehyde solution in saline) into the dorsal surface of the right hind paw. Periods of licking and biting were recorded in 5 minute intervals for 40 minutes after the formalin injection as shown below in Tables 1 and 2. All experiments were done according to the art-recognized Anticonvulsant Screening Program of the NINDS at the University of Utah.
Duration of paw licking in the tables below is expressed in seconds.

[4] = test system: 6 Hz limbic seizures (corneal stimulation); details: for N/F, Time to Peak Effect: IP, 32 mA series; for COMMENT (observed effect): ip
Description: These three tests are highly predictive of efficacy against human generalized tonic-clonic (MES), generalized myoclonic (sc PTZ), and refractory limbic (6 Hz) seizures, respectively.
Male, 18-25 g CFI mice and 100-125 g Sprague-Dawley rats (Charles River Laboratories, Wilmington, Mass.) were used as the experimental animals. Animals were pretreated intraperitoneally (i.p.) with increasing doses of HupA and tested at various times after administration for protection against tonic extension (MES test), minimal clonic (s.c. PTZ test), limbic (6 Hz), or secondarily generalized (kindled rat) seizures. Seizure testing was carried out as follows. For the MES and 6 Hz tests, a drop of anesthetic/electrolyte solution (0.5% tetracaine hydrochloride in 0.9% saline) was applied to the eyes of each animal prior to placement of the corneal electrodes.

[5] = test system: hippocampal kindled seizures; experiment: Rapid hippocampal kindling model, rat; assay type: in vivo; details: 1 mg/kg, i.p., time of test ¼-3 h
Protocol: Seizure testing was carried out as follows.

[6] = test system: maximal electroshock (MES) tonic extension seizures; experiment: Maximal Electroshock (MES) model, mice; details: for Mice protected against seizures, MES: 3 mg/kg; for N/F, MES time course: mice, I.P., 5 mg/kg
Description: (§1) The maximal electroshock (MES) model is an art recognized test, useful to investigate the efficacy of therapeutic agents against grand mal seizures. Maximal seizures were induced by the application of electrical current to the brain via corneal electrodes. The stimulus parameters for mice were 50 mA in a pulse of 60 Hz for 200 ms.
(§2) Male, 18-25 g CFI mice and 100-125 g Sprague-Dawley rats (Charles River Laboratories, Wilmington, Mass.) were used as the experimental animals. Animals were pretreated intraperitoneally (i.p.) with increasing doses of HupA and tested at various times after administration for protection against tonic extension (MES test), minimal clonic (s.c. PTZ test), limbic (6 Hz), or secondarily generalized (kindled rat) seizures. Seizure testing was carried out as follows. For the MES and 6 Hz tests, a drop of anesthetic/electrolyte solution (0.5% tetracaine hydrochloride in 0.9% saline) was applied to the eyes of each animal prior to placement of the corneal electrodes. […] Animals not displaying secondarily generalize seizures were considered protected.

patients = details: human, in vivo; cited from earlier work
[7] = test system: minimal motor impairment (ataxia, abnormal gait and stance); details: rat, in vivo
[8] = test system: maximal electroshock (MES) tonic extension seizures; experiment: Maximal Electroshock (MES) model, rats; details: oral, 1 mg/kg
Description: as §1, §2

[9] = test system: minimal motor impairment (ataxia, abnormal gait and stance); experiment: Toxicity (TOX) / minimal motor impairment, rats; details: oral, 1 mg/kg
[10] = 0.5 mg/kg i.p., Inflammatory phase
[11] = 1 mg/kg i.p., Inflammatory phase

## C/C=C1\[C@H]2C=C(C)C[C@]1(N)c1ccc(=O)[nH]c1C2 [Huperzine A]
[1]; after p.o. administration of 1 mg/kg, test not given
  Time of peak anticonvulsant activity: one-hour
[1]; p.o., doses tested 1, 2 and 4 mg/kg, at a non-toxic dose of 1 mg/kg, test not given
  Maximum protection: 62.5%
[1]; rats, oral, 1 mg/kg, 0.25 h
  N/F, SCMET time course: 0/4
[1]; rats, oral, 1 mg/kg, 0.5 h
  N/F, SCMET time course: 2/4
[1]; rats, oral, 1 mg/kg, 1.0 h
  N/F, SCMET time course: 2/4
[1]; rats, oral, 1 mg/kg, 2.0 h
  N/F, SCMET time course: 1/4
[1]; rats, oral, 1 mg/kg, 4.0 h
  N/F, SCMET time course: 1/4
[1]; rats, oral, 1 mg/kg, 6.0 h
  N/F, SCMET time course: 0/4
[1]; rats, oral, 1 mg/kg, MES and SCMET models
  Time of peak activity post administration: between 30 minutes and two hours
[1]; scPTZ, Rat, 2 mg/kg, p.o., time of test ½ h
  Maximum Protection Observed: 62.5%
[2]; 1 mg/kg SOL, 0.5 h
  N/F (mice showing an effect / mice tested), SCMET: 3/5
[2]; 1 mg/kg SOL, 4.0 h
  N/F (mice showing an effect / mice tested), SCMET: 0/1
[2]; 3 mg/kg SUS, 0.5 h
  N/F (mice showing an effect / mice tested), SCMET: 1/1
[2]; 3 mg/kg SUS, 4.0 h
  N/F (mice showing an effect / mice tested), SCMET: 0/1
[2]; 10 mg/kg SUS, 0.5 h
  N/F (mice showing an effect / mice tested), SCMET: 0/1
[2]; 10 mg/kg SUS, 4.0 h
  N/F (mice showing an effect / mice tested), SCMET: 1/1
[2]; scPTZ, Mouse, 1 mg/kg, time of test 2 h
  Maximum Protection Observed: 25%
[3]; 0.5 mg/kg i.p.
  Time spent licking: impressive reduction in the time spent licking
[3]; 0.5 mg/kg i.p., 0 min
  Duration of Licking: 10.00 sec and 0.00 sec and 3.00 sec and 1.00 sec (4×) and 2.00 sec
[3]; 0.5 mg/kg i.p., 5 min
  Duration of Licking: 0.00 s
[3]; 0.5 mg/kg i.p., 10 min
  Duration of Licking: 0.00 s
[3]; 0.5 mg/kg i.p., 15 min
  Duration of Licking: 0.00 s
[3]; 0.5 mg/kg i.p., 20 min
  Duration of Licking: 0.00 s
[3]; 0.5 mg/kg i.p., 25 min
  Duration of Licking: 0.00 s
[3]; 0.5 mg/kg i.p., 30 min
  Duration of Licking: 0.00 s
[3]; 0.5 mg/kg i.p., 35 min
  Duration of Licking: 0.00 s
[3]; 0.5 mg/kg i.p., 40 min
  Duration of Licking: 0.00 s
[3]; 0.5 mg/kg i.p., Acute phase
  Area Under the Curve, Drug Tested: 7.3
  activity at 0.5 mg/kg: 2.8%
[3]; [10]
  Area Under the Curve, Drug Tested: 0.0
  activity at 0.5 mg/kg: 0%
[3]; 1 mg/kg i.p., mice
  Inhibition of phase 1 (acute) and phase 2 (inflammatory) pain response: complete inhibition
[3]; 1 mg/kg i.p., Acute phase
  Area Under the Curve, Drug Treated: 0.0
  activity at 1 mg/kg: 0%
[3]; [11]
  Area Under the Curve, Drug Treated: 0.0
  activity at 1 mg/kg: 0%
[4]; 0.8 mg/kg
  Protection in the mouse 6 Hz test (FIG. 1): time-dependent protection
[4]; 6 Hz, Mouse, 0.83 mg/kg, i.p., time of test 1 h
  Maximum Protection Observed: 100%
[4]; 0.83 mg/kg, 0.25 h
  N/F, Time to Peak Effect: 1/4
[4]; 0.83 mg/kg, 0.5 h
  N/F, Time to Peak Effect: 1/4
[4]; 0.83 mg/kg, 1.0 h
  N/F, Time to Peak Effect: 4/4
[4]; 0.83 mg/kg, 2.0 h
  N/F, Time to Peak Effect: 2/4
[4]; 0.83 mg/kg, 4.0 h
  N/F, Time to Peak Effect: 0/4
[4]; mouse, in vivo
  Protection against 6 Hz seizures (FIG. 2): dose-dependent protection
[4]; mouse, in vivo, 0.18 mg/kg
  COMMENT (observed effect): Minimal motor impairment
[4]; mouse, in vivo, 0.2 mg/kg
  COMMENT (observed effect): Tremors
[4]; mouse, in vivo, 0.35 mg/kg
  COMMENT (observed effect): Minimal motor impairment
[5]
  Maximum Protection Observed: 0%
[6]; 1 mg/kg
  Protection in the mouse MES test (FIG. 1): time-dependent protection
[6]; 30 minutes post administration
  Mice protected against seizures, MES: 33%
[6]; four hours post administration
  Mice protected against seizures, MES: 100%
[6]; MES, Mouse, 1 mg/kg, i.p., time of test 1 & 2 h
  Maximum Protection Observed: 75%
[6]; i.p., 0.1 mg/kg SOL, 4.0 h
  N/F (mice showing an effect / mice tested), MES: 0/4
[6]; i.p., 0.3 mg/kg SOL, 4.0 h
  N/F (mice showing an effect / mice tested), MES: 0/4
[6]; i.p., 1 mg/kg SUS, 0.5 h
  N/F (mice showing an effect / mice tested), MES: 0/1
[6]; i.p., 1 mg/kg SUS, 4.0 h
  N/F (mice showing an effect / mice tested), MES: 1/1
[6]; i.p., 3 mg/kg SUS, 0.5 h
  N/F (mice showing an effect / mice tested), MES: 1/3
[6]; i.p., 3 mg/kg SUS, 4.0 h
  N/F (mice showing an effect / mice tested), MES: 3/3
[6]; i.p., 10 mg/kg SUS, 0.5 h
  N/F (mice showing an effect / mice tested), MES: 1/1
[6]; i.p., 10 mg/kg SUS, 4.0 h
  N/F (mice showing an effect / mice tested), MES: 1/1
[6]; 0.5 h
  N/F, MES time course: 1/4
[6]; 1.0 h
  N/F, MES time course: 3/4
[6]; 2.0 h
  N/F, MES time course: 3/4
[6]; 4.0 h
  N/F, MES time course: 3/4
[6]; 6.0 h
  N/F, MES time course: 4/4
patients
  Adverse effects in patients: noted infrequently and were mainly cholinergic
[7]
  Behavioral impairment: marked motor impairment
[8]; 0.25 h
  N/F, MES time course: 0/4
[8]; 0.5 h
  N/F, MES time course: 0/4
[8]; 1.0 h
  N/F, MES time course: 1/4
[8]; 2.0 h
  N/F, MES time course: 1/4
[8]; 4.0 h
  N/F, MES time course: 0/4
[8]; 6.0 h
  N/F, MES time course: 0/4
[9]
  Toxicity: no toxicity in any of the animals
